Results on 17 compounds are retold here after ChEMBL document CHEMBL1129068, “Structure-activity relationships of the antimalarial agent artemisinin. 5. Analogs of 10-deoxoartemisinin substituted at C-3 and C-9” (J Med Chem, 1996).

For assay [1], the system named is Plasmodium falciparum. The assay is described as follows: Relative in vitro activity compared to artemisinin against Plasmodium falciparum Indochina W2. It counts as functional.
Assay [2] concerns Plasmodium falciparum. The assay is described as follows: Relative in vitro activity compared to artemisinin against Plasmodium falciparum D6 (Sierra Leone). It counts as functional.

`CCC[C@@]12CC[C@H]3[C@H](C)CC[C@H]4CCO[C@H](O1)[C@]43OO2`: the Relative activity in assay [1] turned out to be 685; in assay [2], 722.

Turning to `CCCC[C@@]12CC[C@H]3[C@H](C)CC[C@H]4CCO[C@H](O1)[C@]43OO2`, the Relative activity turned out to be 556 in assay [1] and 653 in assay [2].

For the compound `C[C@@H]1CC[C@H]2CCO[C@@H]3O[C@@]4(CCc5ccccc5)CC[C@@H]1[C@@]23OO4`, the results for the Relative activity in assay [1] and in assay [2] were 2 and 6, respectively.

In the case of `C[C@@H]1CC[C@H]2[C@@H](CCCc3ccccc3)CO[C@@H]3O[C@@]4(C)CC[C@@H]1[C@]32OO4`, the Relative activity in assay [1] is given as 2506; in assay [2], 5073.

On to `CC[C@H]1CO[C@@H]2O[C@@]3(C)CC[C@H]4[C@H](C)CC[C@@H]1[C@@]24OO3`, for which the Relative activity in assay [1] is listed as 466; in assay [2], 914.

For the compound `CC[C@@]12CC[C@H]3[C@H](C)CC[C@H]4CCO[C@H](O1)[C@]43OO2`, the Relative activity in assay [1] and in assay [2] was 10 throughout.

With `C[C@@H]1CC[C@H]2CCO[C@@H]3O[C@@]4(C)CC[C@@H]1[C@@]23OO4`, the Relative activity in assay [1] is 190; in assay [2] it was 237.

`C[C@@H]1CC[C@H]2CCO[C@@H]3O[C@@]4(CCCc5ccc(Cl)cc5)CC[C@@H]1[C@@]23OO4`: the Relative activity in assay [1] is on record as 28; in assay [2], 13.

As to `CCCCC[C@H]1CO[C@@H]2O[C@@]3(C)CC[C@H]4[C@H](C)CC[C@@H]1[C@@]24OO3`, the Relative activity in assay [1] was 145; in assay [2], 170.

In the case of `C[C@@H]1CC[C@H]2CCO[C@@H]3O[C@@]4(CCC(=O)O)CC[C@@H]1[C@@]23OO4`, the Relative activity in assay [1] and in assay [2] was 0.09 each time.

Turning to `C[C@@H]1CC[C@H]2[C@@H](CCCc3ccc(Cl)cc3)CO[C@@H]3O[C@@]4(C)CC[C@@H]1[C@]32OO4`, the Relative activity stood at 3317 in assay [1] and 6991 in assay [2].

On to `C[C@@H]1CC[C@H]2CCO[C@@H]3O[C@@]4(CCCCc5ccccc5)CC[C@@H]1[C@@]23OO4`, for which the Relative activity was 380 in assay [1] and 336 in assay [2].

Regarding `CCC[C@H]1CO[C@@H]2O[C@@]3(C)CC[C@H]4[C@H](C)CC[C@@H]1[C@@]24OO3`, the Relative activity is recorded as 550 in assay [1] and 473 in assay [2].

Turning to `CC(C)C[C@@]12CC[C@H]3[C@H](C)CC[C@H]4CCO[C@H](O1)[C@]43OO2`, the figures for the Relative activity in assay [1] and in assay [2] were 250 and 183, respectively.

For `C[C@@H]1CC[C@H]2[C@@H](C)CO[C@@H]3O[C@]4(C)CC[C@@H]1[C@]32OO4` [DEOXOARTEMISININ], the Relative activity in assay [1] was determined as 567; in assay [2], 659.

As to `CCOC(=O)CC[C@@]12CC[C@H]3[C@H](C)CC[C@H]4CCO[C@H](O1)[C@]43OO2`, the Relative activity in assay [1] is recorded as 506; in assay [2] it was 422.

`CCCC[C@H]1CO[C@@H]2O[C@@]3(C)CC[C@H]4[C@H](C)CC[C@@H]1[C@@]24OO3`: the Relative activity in assay [1] is given as 2090; in assay [2], 5826.
